Source: PMC11435438, “Cyclin-Dependent Kinase 8 Represents a Positive Regulator of Cytomegalovirus Replication and a Novel Host Target for Antiviral Strategies” (Pharmaceutics, 2024)
Read-outs that look alike come from different tables or passages of the source.

Tests used:
HCMV AD169-GFP = HCMV AD169-GFP replication assay in U373 cells; format: cell-based, human cytomegalovirus; conditions: Human betaherpesvirus 5, AD169, U373 MG, read-out: EC50 AD169-GFP
Protocol: (i.e., 1 × TCID25/7d). Immediately after virus adsorption, the cells were treated with antiviral compounds or solvent control (DMSO). Infections were performed in biological quadruplicates, or as indicated for individual experiments. The cells were fixed by the addition of 150 µL 10% formalin/well 7 d p.i. (Merlin-GFP 14 d p.i.), and washed with PBS. For GFP or YFP quantitation, the Victor X4 microplate reader (PerkinElmer, Waltham, MA, USA) was primarily used, or as a very sensitive alternative, the ImageXpress® Pico device (Molecular Devices LLC, San Jose, CA, USA). Mean EC50 values of antiviral efficacy were calculated on the basis of three experimental replicates or as indicated (measurement of fluorescence values in quadruplicate), and percentage values were provided relative to the solvent control (DMSO).

KSHV rKSHV.219-GFP = experiment: KSHV lytic replication assay in iSLK.219 cells; format: cell-based, Kaposi's sarcoma-associated herpesvirus; conditions: Human gammaherpesvirus 8, read-out: EC50 KSHV
Protocol: (§1) Primary human foreskin fibroblasts (HFFs; obtained from clinical samples at Children’s Hospital in Erlangen, Germany), guinea pig embryonic fibroblasts (GPEFs; generously provided by Mark R. Schleiss from the University of Minnesota in Minneapolis, MN, USA), and rat embryonic fibroblasts were cultivated in Eagle’s Minimal Essential Medium (MEM) supplemented with 1 × GlutaMAX™ (both from Thermo Fisher Scientific, Waltham, MA, USA), 10 µg/mL gentamicin, and 10% fetal bovine serum (FBS; Capricorn, Ebsdorfergrund, Germany). Human glioblastoma–astrocytoma cell line (U373) and mouse embryonic fibroblasts (MEFs), both obtained from ATCC (Manassas, VA, USA), and Vero cell sublineage 76 [26], were cultivated in Dulbecco’s modified Eagle’s medium (DMEM) supplemented with 1 × GlutaMAX™, 10 µg/mL gentamicin, and 10% fetal bovine serum. All cultured cells were maintained under the conditions of 37 °C temperature, 5% CO2, and 80% humidity. The regular monitoring for the absence of mycoplasma contamination was conducted using Lonza™ Mycoalert™ (Thermo Fisher Scientific, Waltham, MA, USA). Cultured cell-based viral replication assays were performed by the use of the HCMV strain AD169 (variant U.K.), the recombinant HCMVs AD169-GFP expressing green fluorescent protein [27], TB40 IE2-YFP and TB40-FLuc expressing an IE2-YFP fusion protein or firefly luciferase (FLuc), and Merlin-GFP [31]. […]
(§2) A variety of antiherpesviral and non-herpesviral drug activities were assessed by the cell culture-based viral replication systems, as described elsewhere. […] After incubation at 37 °C for 3 days, iSLK.219 cells were fixed with 10% formalin, washed with PBS, and used for a quantitation of RFP reporter signal by PicoMD counting (ImageXpress® Pico device, Molecular Devices LLC, San Jose, CA, USA). […]

HSV-1 166v VP22-GFP = experiment: HSV-1 replication assay in HFFs; format: cell-based, herpes simplex virus type 1; conditions: Human alphaherpesvirus 1, read-out: EC50 HSV-1
Protocol: as §1, §2

[1] = tested on: HAdV species C5 DBP-mneongreen; experiment: HAdV replication assay in A549 cells; format: cell-based; conditions: Human adenovirus sp., A549, read-out: EC50 HAdV
Protocol: as §1, §2

[2] = Neutral Red uptake cell viability assay in mock-infected HFFs; format: cell-based; conditions: human, read-out: CC50 Mock-inf.
Protocol: To address cell viability after compound treatment, a NR uptake assay was performed. Uninfected cells were seeded at equal numbers as for antiviral replication assays and treated with compounds or solvent control. The treatment was performed for HFFs (7 d), U373 (14 d), A549 (3 d), J-Jhan (14 d), and non-dox-induced iSLK.219 cells (3 d). At the end of the treatment period, 40 µg/mL of Neutral Red (NR) was added and incubated for 2–4 h at 37 °C, before the NR-containing supernatant was removed. Cells were destained using a solution containing 50% ethanol, 1% acetic acid, and 49% water. NR fluorescence was quantified using the Victor X4 microplate reader (PerkinElmer, Waltham, MA, USA) (560/630 nm). For the AB cell viability assay, which was also used to quantify virus-induced cytopathogenicity (particularly in the case of GPCMV in GPEFs), cells were seeded at equal numbers as for antiviral replication assays and incubated with a medium containing 25 ng/mL AB (resazurin; Ann Arbor, MI, USA), incubated for 6 h at 37 °C, and used for measurement identical with NR.

[3] = mock-infected (uninfected) HFFs

Question: What does the source list for Cc1n[nH]c2ncc(C(=O)N3CCC[C@H]3c3ccc(Cl)cc3)cc12 [MSC-2530818]?
Answer: EC50 (HCMV AD169-GFP): 18.5 ± 11.2 nM; EC50 (KSHV rKSHV.219-GFP): > 40000 nM; EC50 (HSV-1 166v VP22-GFP): 42300 ± 4900 nM; EC50 [1]: 340 ± 260 nM; CC50 at 7 d [2, 3]: > 100000 nM

Question: For CN(C)C(=O)Cn1cc(-c2ccc(-c3cncc4ccccc34)cc2)cn1 [BI-1347], which EC50 (HCMV AD169-GFP) is on record?
Answer: 10.8 ± 5.73 nM

Question: What about the EC50 (KSHV rKSHV.219-GFP) of the same molecule?
Answer: 310 ± 610 nM

Question: And the EC50 (HSV-1 166v VP22-GFP)?
Answer: > 50000 nM

Question: And the EC50 [1]?
Answer: 50 ± 110 nM

Question: And the CC50 at 7 d [2, 3]?
Answer: > 100000 nM

Question: With Cn1ncc2cc(-c3cnc(N)c(Cl)c3N3CCC4(CCNC4=O)CC3)ccc21 [CCT-151921] as the molecule, how does the EC50 (HCMV AD169-GFP) read?
Answer: 16.3 ± 7.13 nM

Question: What about the EC50 (KSHV rKSHV.219-GFP) of the same molecule?
Answer: 300 nM

Question: And the EC50 (HSV-1 166v VP22-GFP)?
Answer: > 50000 nM

Question: What about the EC50 [1] of the same molecule?
Answer: 30 ± 30 nM

Question: And the CC50 at 7 d ([2]; HFF)?
Answer: > 100000 nM
